Reference: patent US9089548B2, “Composition for protection against cell-damaging effects” (TIMA FOUNDATION, priority 2011, dated 2015)

What was measured:
[1] = test system: hen's egg white lysozyme; assay: Activity test of lysozyme X-irradiated in the presence of additives added before irradiation (a.r.); type: biochemical; settings: X (1000 Gy); a.r. additive 10 mM; lysozyme 0.1 mg/ml; unirradiated lysozyme = 100%
Procedure: The hen's egg white lysozyme was purchased from Serva (Heidelberg, Germany), additives and all other substances were of the highest available grade. Lysozyme (0.1 mg/ml) and the additives (10 mM, except otherwise stated) were dissolved in dilute, air-saturated 1 mM sodium phosphate buffer pH 6.5 and were irradiated at 25° C. with X-rays (0-1 kGy) in the absence or presence of the additives. Activity tests of the lysozyme were performed as described in Shugar, 1952. The measurement of lysozyme activity and the ultra-violet inactivation of lysozyme. Biochim. Biophys. Acta 8, 302-309. were recorded in a Jasco UV/VIS spectrophotometer V-530. The activity test of lysozyme is simple and straightforward. The method described by Shugar uses the diluted unirradiated or irradiated enzyme and a cell suspension of Micrococcus lysodeikticus in a special activity buffer (66 mM sodium phosphate buffer with 17 mM NaCl, pH 7.0). The bacterium is suspended in an Erlenmeyer flask in the activity buffer at a concentration of 0.2 mg/ml. Before using the bacterial suspension in the test, the flask has to be swivelled to ensure homogeneous pipetting into the cuvette. Working briskly, the enzyme sample was pipetted to the bacterial solution, and using parafilm to tightly seal the cuvette, was homogeneously hand-mixed. Typical test mixtures (total of 3 ml) consisted of 2.98 ml bacterial solution plus 0.02 ml unirradiated enzyme sample in the absence or presence of additives, and 2.95 ml bacterial solution plus 0.05 ml irradiated enzyme (250 Gy) in the absence of additives, and 2.6 ml bacterial solution plus 0.4 ml irradiated enzyme (1000 Gy) in the absence of additives, to allow reasonable handling of the samples. The decrease in absorbance resulting from a breakdown of the bacteria by the enzyme is measured in a 3-ml cuvette in a spectrophotometer at a wavelength of 450 nm for a continuous time period of 3 min at 25° C. Different decreases in absorbance reflect different activities. The test may also be applied for lysozyme in the presence of antioxidants, since, owing to the high dilution of the samples (lysozyme+antioxidants) in the test and the wavelength used, the antioxidants will not disturb the results of the activity measurement. No further separation techniques are needed. Irradiations were performed in small 2-ml plastic cups at 25° C. The dosage measurement of X-rays was obtained by Fricke dosimetry (ferrous sulfate dosimetry). […] Afterwards the irradiated lysozyme was used in the activity assay as described in example 2 to determine the activity of the lysozyme. For comparison, activities are given in percent. The native, unirradiated lysozyme is used as reference and is considered to have 100% activity. […]

[2] = test system: hydrogen peroxide in the blood of mice; assay: Hydrogen peroxide concentration in blood of 6 Gy irradiated mice (d-ROMs test); type: in vivo, C57BL/6 mice; settings: Example 7; for Hydrogen peroxide concentration: three times in 24 h interval before 6 Gy, blood 72 h after irradiation
Procedure: For the following experiments C57BL/6 mice (21 gram body weight) were purchased from Japan SLC (Shizuoka, Japan). The mice were used for the experiments with an age of 8 weeks.
In this Experiment Six Groups were Built, Wherein Each Group Comprises 6 Mice: • a) the first group of mice were not treated and built the negative control, • b) the second group of mice built the positive control, thus the mice were treated with 6 Gy radiation and 72 hours after irradiation blood sampling was performed, • c) the third group of mice was treated with 150 mg Vitamin C per kg body weight, • d) the forth group of mice was treated with 15 mg Vitamin C per kg body weight, and • e) the fifth group of mice was treated with 15 mg of the composition in Example 6 per kg body weight.
The following experiment was performed for the first, second and fifth group in three independent experiments, for the third group in two independent experiments and for the forth group in one experiment.
Each mouse was placed in a well-ventilated acrylic container. The composition in Example 6 and Vitamin C, respectively suspended in 0.5 ml water was orally administered three times in a 24 hours interval to the mice of the third to fifth group. 24 hours after the third administration mice were exposed to 6 Gy whole body irradiation (WBI), given at a dose rate of 0.45 Gy/min at 150 kV and 5 mA (HITACHI MBR-1505R2, Tokyo, Japan). The beam was filtered through a 2 mm aluminum board. 72 hours after irradiation blood sampling was performed.
The d-ROMs (Reactive Oxygen Metabolites) test by using Free Carpe Diem photometric analytical system (Diacron, Grosseto, Italy) was used for the measurement of free radical metabolites in the blood samples of the mice. It is a spectrophotometric method that assesses overall oxidative stress by measuring total hydroperoxide levels, given that hydroperoxides are intermediate oxidative products of lipids, peptides, and amino acids. Briefly, 0.02 ml plasma was diluted in 1 ml acetate-buffered solution. Hydroperoxide groups react with the transition metal ions liberated from the proteins in the acidic medium, and are converted to alkoxyl and peroxyl radicals according to the Fenton reaction. These newly formed radicals, the quantities of which are directly proportional to those of the peroxides, were trapped chemically with 0.02 ml chromogen (N, N-diethyl-para-phenylendiamine), leading to the formation of the radical cation of this chromogen. The purple color resulting from this reaction over time was monitored in a spectrophotometer (Wismarll FRAS4, Tokyo, Japan) at 505 nm. The results of this method were expressed in μmol per liter. […]
c) the fifth group of mice, comprising 12 mice, was treated with 15 mg of a composition similar to that of Example 8 containing cysteine instead of cystine per kg body weight by oral administration, and
d) the sixth group of mice, comprising 12 mice, was treated with 15 mg of the composition according to Example 8 per kg body weight by intra-peritoneal administration.
Each mouse was placed in a well-ventilated acrylic container. The mice representing the positive control were exposed to 6 Gy whole body irradiation (WBI), given at a dose rate of 0.45 Gy/min at 150 kV and 5 mA (HITACHI MBR-1505R2, Tokyo, Japan). The beam was filtered through a 2 mm aluminum board. 72 hours after irradiation blood sampling was performed.
The composition in Example 8 was orally administered three times in a 24 hours interval to the mice of the second group in the concentration of 15 mg composition per kg body weight, i.e. the mice were pre-treated 3 days with the composition of Example 8 before irradiation. 24 hours after the third administration mice were irradiated using conditions as for positive control. 72 hours after irradiation blood sampling was performed. […]

SMILES | % Activity [1] [%] | Difference (increase vs positive control) ([2]; 15 mg/kg oral, three times before 6 Gy, positive control 144.7) [µmol/L] | Increase rate ([2]; 15 mg/kg oral, three times before 6 Gy, relative to radiation-induced increase 19.7 μmol/l, listed as Vitamin C, 15 mg/kg) [%] | Hydrogen peroxide concentration ([2]; 15 mg/kg oral) [µmol/L] | Difference (decrease vs positive control) ([2]; 150 mg/kg oral, three times before 6 Gy, positive control 144.7) [µmol/L] | Reduction rate ([2]; 150 mg/kg oral, three times before 6 Gy, relative to radiation-induced increase 19.7 μmol/l, listed as Vitamin C, 150 mg/kg) [%] | Hydrogen peroxide concentration ([2]; 150 mg/kg oral) [µmol/L]
O=C1O[C@H]([C@@H](O)CO)C(O)=C1O [Ascorbic acid] | 90 | 5.1 | 25.89 | 149.6 | 3.8 | 19.29 | 140.5
N[C@@H](CCC(=O)N[C@@H](CS)C(=O)NCC(=O)O)C(=O)O [Glutathione, glutathione] | 58 |  |  |  |  |  | 
OC[C@@H](O)[C@@H](O)[C@H](O)[C@H](O)CO [Mannitol, mannitol] | 51 |  |  |  |  |  | 
O=C[O-].[Na+] [Sodium-Formate, sodium-formate] | 75 |  |  |  |  |  | 
